{"source": "patent US10954260B2", "about": "“Cymanquine compounds and derivatives thereof and uses thereof” (UNIVERSITY OF VERMONT AND STATE AGRICULTURAL COLLEGE, priority 2015, dated 2021)", "key": {"[1]": {"test_system": "autophagy", "details": "low pH media, and bulky tumors in vivo; Pellegrini et al.; cited from earlier work"}, "[2]": {"experiment": "Cyclic voltammetry, anodic oxidation potentials", "assay_type": "physicochemical", "details": "dichloromethane/0.05 M [NBu4][B(C6F5)4]", "method": "Electrochemical studies were carried out. The electrolyte solution used for these studies, namely dichloromethane with 0.05 M [NBu4][B(C6F5)4] as the supporting electrolyte, is known to provide an optimum medium for the electrochemical oxidation of compounds containing the MnCp(CO)3 (Cp=η^5-C5H5) backbone (Laws et al., J. Am. Chem. Soc. 2008, 130, 9859). The potentials given here are referred to the ferrocene/ferrocenium reference couple. The experiments were carried out in a controlled atmosphere which minimizes exposure to oxygen and water. We refer to two types of standard electrochemical techniques that are commonly described in books on electrochemistry: cyclic voltammetry and bulk electrolysis (Bard, A. J.; Faulkner, L. R. Electrochemical Methods, John Wiley & Sons, New York, 2001, second edition) The former is useful for the analytical and gross mechanistic aspects of the electron-transfer properties of a compound, whereas the latter is most often employed for the electro-synthetic function of making isolable quantities of electrochemical oxidation or reduction products.\nAnodic oxidation of the three compounds was investigated. […]\nTable of potentials (vs ferrocene/ferrocenium (FcH)) measured by cyclic voltammetry for oxidation of compounds 3, 4, and 5 in dichloromethane/0.05 M [NBu4][B(C6F5)4]. […]"}, "[3]": {"test_system": "panel of human cancer cell lines", "experiment": "Cytotoxicity assay (MTS cell viability, 72 h)", "assay_type": "cell-based", "method": "(§1) Materials and Methods. Cell lines and reagents. Human cancer cell lines ACHN (kidney adenocarcinoma), BxPC3 (pancreatic adenocarcinoma), DU145 (prostate carcinoma), HT29 (colorectal adenocarcinoma), Jurkat (T-cell lymphoma), LNCaP (androgen sensitive prostate adenocarcinoma), PC3 (androgen insensitive prostate adenocarcinoma), SB1A (melanoma), and T47D (breast infiltrating ductal carcinoma) were cultured RPMI 1640 (Mediatech, Inc., Manassas, Va.) supplemented with 10% fetal bovine serum, 1% penicillin/streptomycin/amphotericin B solution, 1 mM sodium pyruvate, 1% MEM non-essential amino acid solution, and 2 mM L-glutamine at 37° C. in a 5% CO2, humidified incubator. All supplements were purchased from HyClone™ (Logan, Utah). […] The resulting pH was measured to be 6.72±0.06 in the absence of cells. […]\n(§2) Cytotoxicity assay. […] Viability was measured by the CellTiter 96 AQueous Non-Radioactive Cell Proliferation Assay (Promega, Madison, Wis.) according to manufacturer's instruction. Briefly, 20 μL of MTS/PMS reagent was added to each tissue culture well, and incubated at 37° C. for a minimum of 2 hours, or until the maximum absorbance at 490 nm on the plate (wells with highest cell numbers) reached a value greater than 0.6. Absorbance was measured on a Perkin-Elmer Victor X4 multi-label plate reader. […]"}, "[4]": {"test_system": "RWPE-1", "experiment": "Cytotoxicity assay (MTS cell viability, 72 h) in normal prostate epithelial cells", "assay_type": "cell-based, human", "details": "normal pH", "method": "as §1, §2"}, "[5]": {"test_system": "LC3-II", "experiment": "Western blotting for LC3 isoforms in SB1A cells", "assay_type": "cell-based, human", "details": "24 h", "method": "(§3) FIG. 10. Evidence of lysosomal accumulation and cytotoxicity obtained through autophagy blockade by Cymanquine. A, SB1A cells were treated with various concentrations of Cymanquine or CQ for 24 h prior to western blotting for LC3 isoforms 1 and 2 (LC3-I and II—see text), respectively. […] B, SB1A cells stably expressing EGFP-LC3 were treated with indicated concentrations of CQ and Cymanquine for 4 h prior to fluorescence microscopy evaluation of EGFP-LC3 sub-cellular deposition. C-E, SB1A were treated with various concentrations of Cymanquine or CQ for 24 h prior to simultaneous staining with NBD-PZ and propidium iodide and analysis by flow cytometry. C, Live cells, sorted based on absence of propidium iodide staining (left panel, pentagonal gate) were analyzed for NBD-PZ staining, indicative of lysosomal content. B,C, The dose-response of Cymanquine and CQ on B, percentage of live cells (negative for propidium iodide staining), and C, NBD-PZ median fluorescence intensity of live cells. […]\n(§4) Experiments aimed at elucidating the mechanism of action of Cymanquine were conducted. […] Preliminary quantitation of Cymanquine and CQ from isolated lysosomes of cells treated with equimolar quantities of either drug have been encouraging, showing a 60-fold higher accumulation of Cymanquine compared to CQ, as measured by HPLC-MS/MS."}, "[6]": {"test_system": "EGFP-LC3 fusion protein in SB1A cells", "experiment": "Fluorescence microscopy of EGFP-LC3 sub-cellular distribution", "assay_type": "cell-based, human", "details": "SB1A stably expressing EGFP-LC3, 4 h", "method": "as §3, §4"}, "[7]": {"test_system": "SB1A cells", "experiment": "Flow cytometry with NBD-PZ and propidium iodide staining", "assay_type": "cell-based, human", "details": "24 h", "method": "FIG. 10. […] C, Live cells, sorted based on absence of propidium iodide staining (left panel, pentagonal gate) were analyzed for NBD-PZ staining, indicative of lysosomal content. […] Data in B,C presented as mean+/−SEM (n=3). *P<0.05, **P<0.001 by student's t-test.\nExperiments aimed at elucidating the mechanism of action of Cymanquine were conducted. […] It is known that the blockade of autophagy results in the accumulation of neutralized lysosomes and of proteins normally cleared by autophagic flux."}, "[8]": {"test_system": "isolated lysosomes of cells", "experiment": "Quantitation of drug from isolated lysosomes by HPLC-MS/MS", "assay_type": "cell-based", "details": "preliminary, cells treated with equimolar quantities of either drug", "method": "Experiments aimed at elucidating the mechanism of action of Cymanquine were conducted. […] It is known that the blockade of autophagy results in the accumulation of neutralized lysosomes and of proteins normally cleared by autophagic flux. FIG. 10 presents data that support a mechanism of action for Cymanquine as a weak base lysosomotropic autophagy inhibitor. […] The lysosomotropic fluorophore, NBD-PZ, was employed in conjunction with propidium iodide (PI) to simultaneously measure lysosomal accumulation, neutralization, and cell viability by flow cytometry on CQ and Cym treated SB1A cells (FIG. 10C-E). […] Furthermore, at the highest concentration of Cymanquine tested, NBD-PZ staining is reduced, due to either lysosome loss, or neutralization, as emission of this fluorophore is highly dependent upon pH. Preliminary quantitation of Cymanquine and CQ from isolated lysosomes of cells treated with equimolar quantities of either drug have been encouraging, showing a 60-fold higher accumulation of Cymanquine compared to CQ, as measured by HPLC-MS/MS."}}, "note": "Entries after “also recorded” stand apart in the source; their conditions may differ.", "data": [{"molecule": "CCN(CC)CCCC(C)Nc1ccnc2cc(Cl)ccc12", "note": "(stereo not shown) [CQ, Chloroquine]", "values": [{"measurement": "anti-autophagic efficacy", "setting": "[1]", "result": "poor anti-autophagic efficacy"}]}, {"molecule": "cymanquine [Compound 3]", "values": [{"measurement": "Ep(1)", "setting": "[2]; first oxidation, anodic peak potential, irreversible", "result": 0.82, "unit": "V vs FcH"}, {"measurement": "E1/2(2) or Ep(2)", "setting": "[2]; second oxidation, given as Ep (irreversible)", "result": 1.25, "unit": "V vs FcH"}, {"measurement": "cytotoxicity compared to CQ", "setting": "[3]; low-pH (PIPES-supplemented) media", "result": "more potent cytotoxicity than CQ"}, {"measurement": "cytotoxicity compared to CQ", "setting": "[3]; normal pH growth conditions, listed as CMQ", "result": "more potent cytotoxicity than CQ; also recorded: more potent single-agent cytotoxic properties than CQ"}, {"measurement": "relative sensitivity of RWPE-1 compared to transformed cell lines", "setting": "[4]", "result": "most resistant"}, {"measurement": "cell death at the highest concentrations tested", "setting": "[5]", "result": "extensive cell death"}, {"measurement": "accumulation of autophagy marker LC3-II", "setting": "[5]; western blot", "result": "dose-responsive accumulation"}, {"measurement": "subcellular distribution of EGFP-LC3", "setting": "[6]", "result": "punctate EGFP-LC3 emission patterns"}, {"measurement": "NBD-PZ staining", "setting": "[7]; highest concentration tested", "result": "reduced"}, {"measurement": "cytotoxicity (percentage of live cells, propidium iodide)", "setting": "[7]; low micromolar exposures", "result": "significant cytotoxicity"}, {"measurement": "lysosome content (NBD-PZ staining of live cells)", "setting": "[7]; low micromolar exposures", "result": "marked accumulation of lysosomes"}, {"measurement": "accumulation in lysosomes compared to CQ", "setting": "[8]", "result": 60, "unit": "fold"}]}]}
